Columns and labels:
[1] = system: CFTR channel; experiment: CFTR functional assessment, short circuit current (Ussing chamber) in CFBE cells stably expressing c.2988G>A; type: cell-based, human; conditions: CFBE c.2988G>A, Compound (I) treated cells, 10 μM ivacaftor acute, apical side
Excerpt: WT CFTR-EMG-i14-i18, CFTR-EMG-i14-i18 harboring c.2988G>A, Flp-In-CFBE, and Flp-In-293 cells stably expressing WT-EMG and c.2988G>A EMG were generated. Both Flpin-293 and Flp-In-CFBE cells lack endogenous CFTR expression (CFBE41o-) and contain a single Flp recombinase target site. Co-transfection of EMG plasmid with pOG44 (a plasmid encoding Flp recombinase) allowed for genomic integration at the FRT site. Hygromycin was used for stable cell selection.
Assessment of CFTR channel function and response to Compound (I) was performed in CFBEs stably expressing c.2988G>A. Briefly, CFBE stable cell lines were plated on snapwell filters. When transepithelial resistance reached ˜200Ω (˜ 5-7 days) as measured using Voltammeter (Physiologic Instruments), cells were treated with Compound (I) at varying doses (0.3 μM to 10 μM) for next 3 days. Filters were mounted in Ussing chambers (Physiological Instruments). A high chloride solution was added to the basolateral chamber and a low chloride solution was added to the apical chamber. After equilibration of currents, 10 μM forskolin (Selleckchem) was added to the basolateral side to activate CFTR channels via cAMP signaling. Currents were allowed to plateau, followed by acute addition of 10 μM ivacaftor at apical side for CFTR potentiation (Selleckchem). Inhibition of CFTR was performed using 10 μM Inh-172 (Selleckchem) added to the apical chamber.
The ability of Compound (I) to rescue chloride channel function was also assessed. CF bronchial epithelial (CFBE) cell lines was generated to stably express the splicing mutation c.2988G>A. Cells were grown in monolayers on filters and treated with increasing doses of Compound (I) (0.3 μM-10 μM) or DMSO for 3 days. Chloride channel function was assessed by measuring short circuit current (Isc) on treated CFBE cells. Forskolin was added to initiate CFTR channel activity via cAMP-mediated signaling, with further channel activation by Ivacaftor and inhibition with Inh-172, a CFTR-specific inhibitor (FIG. 9C, representative Isc tracing). CFTR-specific change in current (ΔIsc±SD) allows for measurement of chloride channel function (FIG. 9C). […] Significant recovery of CFTR function (˜3 fold) was observed following treatment with Compound (I) at 1, 3, 6, and 10 μM for 3 days, with a maximal increase in CFTR function achieved using 3 μM of Compound (I) (ΔIsc=37.168±4.32 μA/cm^2, FIG. 9C).

[2] = system: ELP1 exon 20; conditions: cited from earlier work
[3] = system: ELP1 exon 20; conditions: cited from earlier work; remark: listed apart in the source

Compound | improvement in CFTR function on acute addition of Ivacaftor [1] [fold] | doses needed to achieve inclusion of Exon 20 in vivo [2] | Percent Spliced In (PSI) change for ELP1 exon 20 splicing ([3]; RNA sequencing after kinetin treatment) | additional exon-usage differences in response to kinetin ([3]; RNA sequencing) | usage differences that induced skipping of the middle exon ([3]; RNA sequencing) | usage differences that promoted inclusion of the middle exon ([3]; RNA sequencing)
CC(C)(C)c1cc(C(C)(C)C)c(NC(=O)c2c[nH]c3ccccc3c2=O)cc1O [Ivacaftor, reference compound] | ~2 |  |  |  |  | 
c1coc(CNc2ncnc3nc[nH]c23)c1 [kinetin, 6-furfurylaminopurine] |  | extremely high doses are necessary | 0.57 | 42 | 31 | 11
